Data published in ChEMBL document CHEMBL4371076 (J Med Chem, 2019).
Active and inactive are the calls of the source. The calls are words filed in the database; no cut-off is given here.

Assays:
[1] = target: T1, Cytochrome P450 2C19 (Homo sapiens, UniProt P33261); experiment: Time-dependant inhibition of CYP2C19 in human liver microsomes; type: ADME
[2] = target: T2, Cytochrome P450 2C9 (Homo sapiens, UniProt P11712); experiment: Inhibition of CYP2C9 in human liver microsomes; type: ADME; conditions: human, microsomes
[3] = Efflux ratio of permeability in human Caco2 cells; type: ADME, cell-based; conditions: Caco-2
[4] = tested on: Mus musculus; experiment: Analgesic activity in CD1 mouse model of formalin-induced nociception assessed as reduction in formalin-evoked paw flinching/licking response during second phase at 30 mg/kg, po pretreated for 30 mins followed by formalin treatment and measured during 15 to 45 mins post formalin injection; type: functional, organism-based
[5] = tested on: Mus musculus; experiment: Analgesic activity in CD1 mouse model of formalin-induced nociception assessed as reduction in formalin-evoked paw flinching/licking response during first phase at 30 mg/kg, po pretreated for 30 mins followed by formalin treatment and measured during first 5 mins post formalin injection; type: functional, organism-based
[6] = Permeability from apical to basolateral side in human Caco2 cells; type: ADME, cell-based; conditions: Caco-2, read-out: permeability
[7] = target: T3, Cytochrome P450 2D6 (Homo sapiens, UniProt P10635); experiment: Inhibition of CYP2D6 in human liver microsomes; type: ADME; conditions: human, microsomes
[8] = Unbound plasma concentration in CD1 mouse model of formalin-induced nociception at 30 mg/kg, po; type: ADME, organism-based; conditions: in vivo
[9] = Plasma concentration in CD1 mouse model of formalin-induced nociception at 30 mg/kg, po; type: ADME, organism-based; conditions: read-out: Cp, in vivo
[10] = target: T4, Cytochrome P450 2B6 (Homo sapiens, UniProt P20813); experiment: Inhibition of CYP2B6 in human liver microsomes; type: ADME; conditions: human, microsomes
T4 sequence (P20813 whole entry): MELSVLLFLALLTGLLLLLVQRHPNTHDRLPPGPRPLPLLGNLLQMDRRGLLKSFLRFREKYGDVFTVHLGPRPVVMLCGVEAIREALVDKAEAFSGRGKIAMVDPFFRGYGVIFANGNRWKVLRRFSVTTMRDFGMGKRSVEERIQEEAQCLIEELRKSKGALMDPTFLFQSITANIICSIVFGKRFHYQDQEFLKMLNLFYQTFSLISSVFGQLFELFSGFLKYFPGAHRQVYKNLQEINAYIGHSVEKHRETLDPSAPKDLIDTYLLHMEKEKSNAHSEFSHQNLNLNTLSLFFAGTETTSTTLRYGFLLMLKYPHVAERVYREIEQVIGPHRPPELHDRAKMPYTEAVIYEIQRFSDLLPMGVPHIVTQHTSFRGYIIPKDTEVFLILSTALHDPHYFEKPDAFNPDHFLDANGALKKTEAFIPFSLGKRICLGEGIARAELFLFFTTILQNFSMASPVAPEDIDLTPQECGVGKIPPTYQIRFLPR

[11] = Permeability from basolateral to apical side in human Caco2 cells; type: ADME, cell-based; conditions: Caco-2, read-out: permeability
[12] = Metabolic stability in mouse liver microsomes assessed as parent compound remaining at 0.5 uM after 10 mins; type: ADME, Microsome; conditions: read-out: Stability
[13] = Fraction unbound in mouse plasma; type: ADME, cell-free
[14] = target: Sodium channel protein type 9 subunit alpha (Homo sapiens, UniProt Q15858); experiment: Inhibition of recombinant human Nav1.7 expressed in HEK293 cells at -70 mV holding potential by patch clamp electrophysiology method; type: cell-based
[15] = target: T4, Cytochrome P450 2B6; experiment: Time-dependant inhibition of CYP2B6 in human liver microsomes; type: ADME
[16] = target: T5, Sodium channel protein type 9 subunit alpha (Mus musculus, UniProt Q62205); experiment: Inhibition of recombinant mouse Nav1.7 expressed in HEK293 cells at -70 mV holding potential by patch clamp electrophysiology method; type: cell-based
[17] = target: T5, Sodium channel protein type 9 subunit alpha; experiment: Inhibition of Nav1.7 in mouse DRG neurons at -70 mV holding potential by patch clamp electrophysiology method
[18] = target: T3, Cytochrome P450 2D6; experiment: Time-dependant inhibition of CYP2D6 in human liver microsomes; type: ADME
[19] = Metabolic stability in rat liver microsomes assessed as parent compound remaining at 0.5 uM after 10 mins; type: ADME, Microsome; conditions: read-out: Stability
[20] = target: T6, Cytochrome P450 2C8 (Homo sapiens, UniProt P10632); experiment: Time-dependant inhibition of CYP2C8 in human liver microsomes; type: ADME
T6 sequence (P10632 whole entry): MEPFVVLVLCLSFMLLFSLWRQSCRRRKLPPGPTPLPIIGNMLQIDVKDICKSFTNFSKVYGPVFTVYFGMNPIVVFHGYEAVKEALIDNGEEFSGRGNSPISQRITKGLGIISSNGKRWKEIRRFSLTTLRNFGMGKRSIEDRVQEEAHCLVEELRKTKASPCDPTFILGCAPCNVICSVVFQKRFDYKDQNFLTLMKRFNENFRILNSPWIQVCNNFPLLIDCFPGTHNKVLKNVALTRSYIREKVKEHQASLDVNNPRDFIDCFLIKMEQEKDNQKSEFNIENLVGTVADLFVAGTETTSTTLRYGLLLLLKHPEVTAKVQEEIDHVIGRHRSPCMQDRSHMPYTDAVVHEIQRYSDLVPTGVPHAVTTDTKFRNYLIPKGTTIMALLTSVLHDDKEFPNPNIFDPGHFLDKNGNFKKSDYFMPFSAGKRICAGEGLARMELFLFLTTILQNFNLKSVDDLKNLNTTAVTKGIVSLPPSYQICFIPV

[21] = Toxicity in CD1 mouse model of formalin-induced nociception assessed as hypothermia at 30 mg/kg, po; type: organism-based; conditions: in vivo
[22] = Permeability of the compound at pH 5.5 by PAMPA; type: ADME; conditions: read-out: permeability
[23] = Toxicity in CD1 mouse model of formalin-induced nociception assessed as prostration or sedation at 30 mg/kg, po; type: organism-based; conditions: in vivo
[24] = Permeability of the compound at pH 7.4 by PAMPA; type: ADME; conditions: read-out: permeability
[25] = Metabolic stability in human liver microsomes assessed as parent compound remaining at 0.5 uM after 10 mins; type: ADME, Microsome; conditions: read-out: Stability
[26] = target: T7, Cytochrome P450 3A4 (Homo sapiens, UniProt P08684); experiment: Time-dependant inhibition of CYP3A4 in human liver microsomes; type: ADME
[27] = target: T7, Cytochrome P450 3A4; experiment: Inhibition of CYP3A4 in human liver microsomes; type: ADME; conditions: human, microsomes
[28] = target: T1, Cytochrome P450 2C19; experiment: Inhibition of CYP2C19 in human liver microsomes; type: ADME; conditions: human, microsomes
[29] = target: T6, Cytochrome P450 2C8; experiment: Inhibition of CYP2C8 in human liver microsomes; type: ADME; conditions: human, microsomes
[30] = target: T2, Cytochrome P450 2C9; experiment: Time-dependant inhibition of CYP2C9 in human liver microsomes; type: ADME
[31] = Fraction unbound in human plasma; type: ADME, cell-free
[32] = Unbound plasma concentration in CD1 mouse model of formalin-induced nociception at 3 mg/kg, po; type: ADME, organism-based; conditions: in vivo
[33] = Plasma concentration in CD1 mouse model of formalin-induced nociception at 3 mg/kg, po; type: ADME, organism-based; conditions: read-out: Cp, in vivo

T1 sequence (P33261 whole entry): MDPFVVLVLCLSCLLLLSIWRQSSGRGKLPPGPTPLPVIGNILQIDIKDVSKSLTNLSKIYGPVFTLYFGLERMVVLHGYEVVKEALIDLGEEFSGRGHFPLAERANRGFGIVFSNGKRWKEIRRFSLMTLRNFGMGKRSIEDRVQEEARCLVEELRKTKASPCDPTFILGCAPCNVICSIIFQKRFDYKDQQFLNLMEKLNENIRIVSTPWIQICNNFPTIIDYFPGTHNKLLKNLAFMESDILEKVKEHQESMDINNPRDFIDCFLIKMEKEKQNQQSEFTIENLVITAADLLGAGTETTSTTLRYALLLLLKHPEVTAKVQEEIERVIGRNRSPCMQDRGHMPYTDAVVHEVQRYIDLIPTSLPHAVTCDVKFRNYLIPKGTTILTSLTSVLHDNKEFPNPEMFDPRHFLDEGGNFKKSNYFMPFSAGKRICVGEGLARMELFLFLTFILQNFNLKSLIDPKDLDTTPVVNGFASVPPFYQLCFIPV
T7 sequence (P08684 whole entry): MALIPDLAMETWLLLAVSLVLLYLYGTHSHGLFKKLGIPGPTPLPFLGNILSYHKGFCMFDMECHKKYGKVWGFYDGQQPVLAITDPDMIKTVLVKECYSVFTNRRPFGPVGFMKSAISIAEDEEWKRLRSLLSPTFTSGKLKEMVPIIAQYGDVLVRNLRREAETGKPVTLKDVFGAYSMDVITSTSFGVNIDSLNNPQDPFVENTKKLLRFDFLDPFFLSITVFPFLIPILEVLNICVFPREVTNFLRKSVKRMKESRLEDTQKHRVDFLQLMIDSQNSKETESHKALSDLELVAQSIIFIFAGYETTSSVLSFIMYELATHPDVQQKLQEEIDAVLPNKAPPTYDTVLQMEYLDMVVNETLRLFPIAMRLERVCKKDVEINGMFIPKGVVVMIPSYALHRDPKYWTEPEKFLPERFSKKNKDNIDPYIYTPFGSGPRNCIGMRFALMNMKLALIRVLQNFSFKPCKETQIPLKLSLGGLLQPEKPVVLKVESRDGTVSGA
T3 sequence (P10635 whole entry): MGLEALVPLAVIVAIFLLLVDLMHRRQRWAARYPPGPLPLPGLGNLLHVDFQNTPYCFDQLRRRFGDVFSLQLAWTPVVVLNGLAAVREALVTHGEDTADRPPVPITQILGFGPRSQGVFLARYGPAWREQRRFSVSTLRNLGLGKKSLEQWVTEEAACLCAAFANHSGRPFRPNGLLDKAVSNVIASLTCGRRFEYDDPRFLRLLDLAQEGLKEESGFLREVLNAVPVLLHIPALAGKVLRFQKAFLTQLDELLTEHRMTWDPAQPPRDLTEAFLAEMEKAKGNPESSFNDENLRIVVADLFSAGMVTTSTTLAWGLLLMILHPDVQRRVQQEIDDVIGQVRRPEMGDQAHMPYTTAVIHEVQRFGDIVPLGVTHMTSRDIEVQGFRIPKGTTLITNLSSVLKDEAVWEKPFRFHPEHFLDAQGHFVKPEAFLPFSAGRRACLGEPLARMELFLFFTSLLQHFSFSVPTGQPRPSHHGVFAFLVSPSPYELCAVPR
T5 sequence (Q62205 whole entry): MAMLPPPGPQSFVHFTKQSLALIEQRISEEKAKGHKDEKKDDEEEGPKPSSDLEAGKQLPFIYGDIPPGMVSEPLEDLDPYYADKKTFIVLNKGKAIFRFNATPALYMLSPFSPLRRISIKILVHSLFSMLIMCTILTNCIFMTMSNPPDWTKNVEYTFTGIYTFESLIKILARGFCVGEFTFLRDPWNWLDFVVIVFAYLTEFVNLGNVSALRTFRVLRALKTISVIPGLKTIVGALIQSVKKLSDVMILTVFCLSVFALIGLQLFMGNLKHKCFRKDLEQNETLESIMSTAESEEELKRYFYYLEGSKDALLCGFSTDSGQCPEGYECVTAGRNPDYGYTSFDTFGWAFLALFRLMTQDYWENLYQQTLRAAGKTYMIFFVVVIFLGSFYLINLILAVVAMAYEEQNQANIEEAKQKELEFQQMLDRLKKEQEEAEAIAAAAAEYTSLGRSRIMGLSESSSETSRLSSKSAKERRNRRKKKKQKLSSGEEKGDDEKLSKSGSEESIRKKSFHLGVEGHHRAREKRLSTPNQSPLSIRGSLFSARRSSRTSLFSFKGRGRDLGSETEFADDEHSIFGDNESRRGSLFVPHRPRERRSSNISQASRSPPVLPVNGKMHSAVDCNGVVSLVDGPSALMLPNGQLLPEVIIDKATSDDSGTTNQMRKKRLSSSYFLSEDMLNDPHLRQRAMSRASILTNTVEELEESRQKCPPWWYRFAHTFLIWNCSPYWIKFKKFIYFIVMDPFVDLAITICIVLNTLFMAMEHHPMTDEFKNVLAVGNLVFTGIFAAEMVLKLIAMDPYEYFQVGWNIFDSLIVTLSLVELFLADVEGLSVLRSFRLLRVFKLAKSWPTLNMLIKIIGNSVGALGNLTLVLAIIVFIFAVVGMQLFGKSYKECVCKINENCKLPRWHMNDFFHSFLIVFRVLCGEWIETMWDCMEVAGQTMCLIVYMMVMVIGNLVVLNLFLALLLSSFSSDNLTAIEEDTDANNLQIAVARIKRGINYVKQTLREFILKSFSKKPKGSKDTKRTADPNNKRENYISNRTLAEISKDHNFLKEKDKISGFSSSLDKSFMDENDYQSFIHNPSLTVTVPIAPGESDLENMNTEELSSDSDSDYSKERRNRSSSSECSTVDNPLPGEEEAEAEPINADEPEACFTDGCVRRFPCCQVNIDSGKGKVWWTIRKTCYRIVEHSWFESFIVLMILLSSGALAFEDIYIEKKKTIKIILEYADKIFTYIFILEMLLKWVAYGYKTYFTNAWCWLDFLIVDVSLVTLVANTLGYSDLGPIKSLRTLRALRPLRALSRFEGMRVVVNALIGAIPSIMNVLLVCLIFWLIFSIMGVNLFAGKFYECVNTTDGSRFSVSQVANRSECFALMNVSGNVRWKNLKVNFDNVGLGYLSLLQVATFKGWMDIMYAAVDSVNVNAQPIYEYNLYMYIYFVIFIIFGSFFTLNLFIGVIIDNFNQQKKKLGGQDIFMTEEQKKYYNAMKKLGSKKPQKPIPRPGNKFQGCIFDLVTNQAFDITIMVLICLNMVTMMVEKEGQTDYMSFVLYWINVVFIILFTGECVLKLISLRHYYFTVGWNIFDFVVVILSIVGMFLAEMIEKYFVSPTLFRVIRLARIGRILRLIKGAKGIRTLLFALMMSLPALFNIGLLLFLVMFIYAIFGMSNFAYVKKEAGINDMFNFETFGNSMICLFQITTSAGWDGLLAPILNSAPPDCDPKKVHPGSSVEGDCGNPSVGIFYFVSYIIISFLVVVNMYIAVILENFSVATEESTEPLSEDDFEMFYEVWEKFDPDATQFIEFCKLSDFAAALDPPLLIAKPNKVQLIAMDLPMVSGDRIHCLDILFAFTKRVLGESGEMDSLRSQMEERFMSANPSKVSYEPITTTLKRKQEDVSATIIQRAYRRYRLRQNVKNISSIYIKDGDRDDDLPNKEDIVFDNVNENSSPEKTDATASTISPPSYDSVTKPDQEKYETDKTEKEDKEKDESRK
T2 sequence (P11712 whole entry): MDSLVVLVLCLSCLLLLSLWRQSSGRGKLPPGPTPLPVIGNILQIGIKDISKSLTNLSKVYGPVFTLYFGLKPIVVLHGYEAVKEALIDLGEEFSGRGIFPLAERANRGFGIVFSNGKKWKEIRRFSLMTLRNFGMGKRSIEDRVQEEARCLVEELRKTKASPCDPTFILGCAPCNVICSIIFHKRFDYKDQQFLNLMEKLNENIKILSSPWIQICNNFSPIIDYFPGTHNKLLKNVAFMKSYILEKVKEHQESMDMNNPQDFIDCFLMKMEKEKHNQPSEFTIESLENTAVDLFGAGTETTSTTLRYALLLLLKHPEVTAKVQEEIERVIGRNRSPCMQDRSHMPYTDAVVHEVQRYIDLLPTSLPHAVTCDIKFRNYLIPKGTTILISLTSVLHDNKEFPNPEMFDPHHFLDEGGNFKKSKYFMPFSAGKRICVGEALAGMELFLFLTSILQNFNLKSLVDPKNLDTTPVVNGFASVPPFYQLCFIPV

Row | TDI [1] | inhibition (INH) [2] | inhibition (INH) [7] | inhibition (INH) [10] | fraction unbound [13] | IC50 [14] | TDI [15] | IC50 [17] | TDI [18] | remaining at 10 min, 0.5 µM [19] | TDI [20] | Papp [22] | Papp [24] | remaining at 10 min, 0.5 µM [25] | TDI [26] | inhibition (INH) [27] | Structure (SMILES) | Activity [4] | Activity [5] | Activity [21] | Activity [23] | also measured
1 | Not Active | Not Active | Not Active | Not Active | 0.007 | 0.012 µM | Not Active | 0.012 µM | Not Active | 82% | Not Active | 32.5 ×10⁻⁶ cm/s | 6 ×10⁻⁶ cm/s | 93% | Not Active | Not Active | Cn1cc(-c2ccc(C(F)F)cc2)c2cc(F)c(C(=O)NS(=O)(=O)C3CC3)cc21 | inactive | inactive | Non-Toxic | Non-Toxic | efflux ratio [3]: 2.4; Papp A→B [6]: 8.1 ×10⁻⁶ cm/s; Cp(f) [8]: 1211 nM; concentration [9]: 173000 nM; Papp B→A [11]: 19.5 ×10⁻⁶ cm/s; remaining at 10 min, 0.5 µM [12]: 86%; IC50 [16]: 0.231 µM; inhibition (INH) [28]: Not Active; inhibition (INH) [29]: Not Active; TDI [30]: Not Active; fraction unbound [31]: 0.003
2 | Not Active | Not Active | Not Active | Not Active | 0.002 | 0.011 µM | Not Active | 0.012 µM | Not Active | 100% | Not Active | 116 ×10⁻⁶ cm/s | 41.7 ×10⁻⁶ cm/s | 100% | Not Active | Not Active | CC(C)COc1ncc(-c2nn(C)c3cc(C(=O)NS(C)(=O)=O)ccc23)cc1Cl | inactive | inactive | Toxic | Toxic | remaining at 10 min, 0.5 µM [12]: 100%; Cp(f) [32]: 0.56 nM; inhibition (INH) [28]: Not Active; inhibition (INH) [29]: Not Active; TDI [30]: Not Active; concentration [33]: 280 nM
3 | Not Active | Not Active | Not Active | Not Active | 0.0035 | 0.005 µM | Not Active | 0.005 µM | Not Active | 100% | Not Active | 166 ×10⁻⁶ cm/s | 32.3 ×10⁻⁶ cm/s | 100% | Not Active | Not Active | Cn1cc(-c2ccc(C(F)(F)F)cc2)c2cc(F)c(C(=O)NS(=O)(=O)C3CC3)cc21 | inactive | inactive | Non-Toxic | Non-Toxic | efflux ratio [3]: 1.9; Papp A→B [6]: 4.6 ×10⁻⁶ cm/s; Cp(f) [8]: 490 nM; concentration [9]: 140000 nM; Papp B→A [11]: 8.6 ×10⁻⁶ cm/s; IC50 [16]: 0.027 µM; inhibition (INH) [28]: Not Active; inhibition (INH) [29]: Not Active; TDI [30]: Not Active; fraction unbound [31]: 0.0025
